According to US20070010671A1, “Novel quinazoline derivatives and methods of treatment related to the use thereof” (priority 2003, published 2007):

molecular target: MCH receptor (Homo sapiens, UniProt Q99705); experiment: High throughput functional screening FLIPR/FDSS6000: inhibition of MCH-evoked intracellular Ca2+ changes; assay type: cell-based; conditions: class by percent of control at 10^-7 M or IC50
Outline: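 Constitutively active non-endogenous MCH-R cells; Fluo4-AM 4 μM, 2.5 mM probenecid, 1 hr, 37° C; cpd 3 min, 37° C; MCH 50 nM (antagonist mode); kinetic Ca2+ read Ex488/Em530, 290 s.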

For `CCOc1ccc(NC(=O)NC[C@H]2CC[C@@H](Nc3nc(N(C)C)c4ccccc4n3)CC2)cc1` [compound 550], which class is on record?
Its class is 3 (Class 3: The value of percent of control at 10^−7 M was more than 60% or the value of IC50 was more than 200 nM.).

How did the class turn out when `CN(C)c1nc(N[C@H]2CC[C@@H](NC(=S)Nc3cc(Cl)c(Cl)cc3Cl)CC2)nc2ccccc12` [compound 244] was run?
Its class is 3 (Class 3: The value of percent of control at 10^−7 M was more than 60% or the value of IC50 was more than 200 nM.).

`CN(C)c1nc(N[C@H]2CC[C@@H](NC(=S)NC3CCCCCCCCCCC3)CC2)nc2ccccc12` [compound 285] was tested. Which class did it give?
The class was 3 (Class 3: The value of percent of control at 10^−7 M was more than 60% or the value of IC50 was more than 200 nM.).

For `CN(C)c1nc(N[C@H]2CC[C@@H](CNC(=O)Nc3cccc(SC(F)(F)F)c3)CC2)nc2ccccc12` [compound 518], which class is on record?
Its class is 3 (Class 3: The value of percent of control at 10^−7 M was more than 60% or the value of IC50 was more than 200 nM.).

How did the class turn out when `CN(C)c1nc(N[C@H]2CC[C@@H](NC(=S)NCCc3ccccc3)CC2)nc2ccccc12` [compound 203] was run?
Its class is 3 (Class 3: The value of percent of control at 10^−7 M was more than 60% or the value of IC50 was more than 200 nM.).

Which class does the source give for `CN(C)c1nc(N[C@H]2CC[C@@H](CNC(=O)Nc3cc(Cl)nc(Cl)c3)CC2)nc2ccccc12` [compound 773] here?
The class was 3 (Class 3: The value of percent of control at 10^−7 M was more than 60% or the value of IC50 was more than 200 nM.).

For `CN(C)c1nc(N[C@H]2CC[C@@H](NC(=S)Nc3ccc(-n4cccn4)cc3)CC2)nc2ccccc12` [compound 397], which class is on record?
The class was 3 (Class 3: The value of percent of control at 10^−7 M was more than 60% or the value of IC50 was more than 200 nM.).

Which class does the source give for `Cc1ccc(NC(=O)NC[C@H]2CC[C@@H](Nc3nc(N(C)C)c4ccccc4n3)CC2)cc1Cl` [compound 464] here?
The class was 3 (Class 3: The value of percent of control at 10^−7 M was more than 60% or the value of IC50 was more than 200 nM.).

With `CCc1cccc(C)c1NC(=S)N[C@H]1CC[C@@H](Nc2nc(N(C)C)c3ccccc3n2)CC1` [compound 255, N-(cis-4-{[4-(dimethylamino)quinazolin-2-yl]amino}cyclohexyl)-N′-(2-ethyl-6-methylphenyl)thiourea] as the compound, how does the class read?
The class was 1 (Class 1: The value of percent of control at 10^−7 M was less than 40% or the value of IC50 was less than 50 nM.).

For `CCOC(=O)c1ccccc1NC(=O)NC[C@H]1CC[C@@H](Nc2nc(N(C)C)c3ccccc3n2)CC1` [compound 491], which class is on record?
Its class is 3 (Class 3: The value of percent of control at 10^−7 M was more than 60% or the value of IC50 was more than 200 nM.).

`CN(C)c1nc(N[C@H]2CC[C@@H](NC(=S)Nc3cc(F)ccc3Br)CC2)nc2ccccc12` [compound 364] was tested. Which class did it give?
Its class is 2 (Class 2: The value of percent of control at 10^−7 M was from 40% to 60% or the value of IC50 was from 50 nM to 200 nM.).

`CN(C)c1nc(N[C@H]2CC[C@@H](CNC(=S)Nc3ccccc3)CC2)nc2ccccc12` [compound 615] was tested. Which class did it give?
The class was 3 (Class 3: The value of percent of control at 10^−7 M was more than 60% or the value of IC50 was more than 200 nM.).

For `COc1ccc([N+](=O)[O-])cc1NC(=O)NC[C@H]1CC[C@@H](Nc2nc(N(C)C)c3ccccc3n2)CC1` [compound 505, N-[(cis-4-{[4-(dimethylamino)quinazolin-2-yl]amino}cyclohexyl)methyl]-N′-(2-methoxy-5-nitrophenyl)urea], which class is on record?
The class was 2 (Class 2: The value of percent of control at 10^−7 M was from 40% to 60% or the value of IC50 was from 50 nM to 200 nM.).

How did the class turn out when `CN(C)c1nc(N[C@H]2CC[C@@H](NC(=S)Nc3cccc(SC(F)(F)F)c3)CC2)nc2ccccc12` [compound 222] was run?
The class was 3 (Class 3: The value of percent of control at 10^−7 M was more than 60% or the value of IC50 was more than 200 nM.).

With `Cc1cc(C)c(NC(=S)N[C@H]2CC[C@@H](Nc3nc(N(C)C)c4ccccc4n3)CC2)c(C)c1` [compound 248, N-(cis-4-{[4-(dimethylamino)quinazolin-2-yl]amino}cyclohexyl)-N′-mesitylthiourea] as the compound, how does the class read?
Its class is 1 (Class 1: The value of percent of control at 10^−7 M was less than 40% or the value of IC50 was less than 50 nM.).

For `C[C@@H](NC(=S)N[C@H]1CC[C@@H](Nc2nc(N(C)C)c3ccccc3n2)CC1)c1ccccc1` [compound 329, N-(cis-4-{[4-(dimethylamino)quinazolin-2-yl]amino}cyclohexyl)-N′-[(1R)-1-phenylethyl]thiourea], which class is on record?
Its class is 1 (Class 1: The value of percent of control at 10^−7 M was less than 40% or the value of IC50 was less than 50 nM.).

`CN(C)c1nc(N[C@H]2CC[C@@H](CNC(=S)Nc3ccc(Br)cc3C(F)(F)F)CC2)nc2ccccc12` [compound 693, N-[4-bromo-2-(trifluoromethyl)phenyl]-N′-[(cis-4-{[4-(dimethylamino)quinazolin-2-yl]amino}cyclohexyl)methyl]thiourea] was tested. Which class did it give?
The class was 2 (Class 2: The value of percent of control at 10^−7 M was from 40% to 60% or the value of IC50 was from 50 nM to 200 nM.).

`CC(C)c1cc(Br)c(NC(=O)N[C@H]2CC[C@@H](Nc3nc(N(C)C)c4ccccc4n3)CC2)c(Br)c1` [compound 339, N-(2,6-dibromo-4-isopropylphenyl)-N′-(cis-4-{[4-(dimethylamino)quinazolin-2-yl]amino}cyclohexyl)urea] was tested. Which class did it give?
Its class is 1 (Class 1: The value of percent of control at 10^−7 M was less than 40% or the value of IC50 was less than 50 nM.).

Which class does the source give for `Cc1ccc(NC(=S)N[C@H]2CC[C@@H](Nc3nc(N(C)C)c4ccccc4n3)CC2)cc1C` [compound 369] here?
The class was 3 (Class 3: The value of percent of control at 10^−7 M was more than 60% or the value of IC50 was more than 200 nM.).

same assay, conditions: class by percent of control at 10^-7 M or by IC50; read-out: class

For `CSc1cccc(NC(=O)N[C@H]2CC[C@@H](Nc3nc(N(C)C)c4ccccc4n3)CC2)c1` [compound 118], which IC50 is on record?
The IC50 was 50 to 200 nM.

With `CN(C)c1nc(N[C@H]2CC[C@@H](NC(=O)Nc3c(Cl)c(Cl)cc(Cl)c3Cl)CC2)nc2ccccc12` [compound 72, N-(cis-4-{[4-(dimethylamino)quinazolin-2-yl]amino}cyclohexyl)-N′-(2,3,5,6-tetrachlorophenyl)urea] as the compound, how does the IC50 read?
The IC50 was under 50 nM.

`Cc1ccc([N+](=O)[O-])c(NC(=O)N[C@H]2CC[C@@H](Nc3nc(N(C)C)c4ccccc4n3)CC2)c1C` [compound 73, N-(cis-4-{[4-(dimethylamino)quinazolin-2-yl]amino}cyclohexyl)-N′-(2,3-dimethyl-6-nitrophenyl)urea] was tested. Which IC50 did it give?
Its IC50 is 50 to 200 nM.

For “N-[3-(dimethylamino)propyl]-N′-[(cis-4-{[4-(dimethylamino)-quinazolin-2-yl]amino}cyclohexyl)methyl]thiourea [compound 807]”, which IC50 is on record?
The IC50 was over 200 nM.

How did the IC50 turn out when `CN(C)c1nc(N[C@H]2CC[C@@H](NC(=O)Nc3cccc(C#N)c3)CC2)nc2ccccc12` [compound 17] was run?
Its IC50 is over 200 nM.

`CN(C)c1nc(N[C@H]2CC[C@@H](NC(=S)Nc3ccc(Cl)cc3Cl)CC2)nc2ccccc12` [compound 165, N-(2,4-dichlorophenyl)-N′-(cis-4-{[4-(dimethylamino)quinazolin-2-yl]amino}cyclohexyl)thiourea] was tested. Which IC50 did it give?
Its IC50 is under 50 nM.

same assay, conditions: class by percent of control at 10^−7 M or by IC50; read-out: class

For `Cc1ccc(Cl)c(CNC(=O)[C@H]2CC[C@@H](Nc3nc(N(C)C)c4ccccc4n3)CC2)c1F` [Example 1150, cis-N-(6-chloro-2-fluoro-3-methylbenzyl)-4-{[4-(dimethylamino)quinazolin-2-yl]amino}cyclohexanecarboxamide], which IC50 is on record?
The IC50 was under 50 nM.

`CN(C)c1nc(N[C@H]2CC[C@@H](NC(=S)Nc3ccccc3Br)CC2)nc2ccccc12` [Example 1014, N-(2-bromophenyl)-N′-(cis-4-{[4-(dimethylamino)quinazolin-2-yl]amino}cyclohexyl)thiourea] was tested. Which IC50 did it give?
The IC50 was 50 to 200 nM.
